Values after ≈ are worked out from the molar mass of the structure shown.
Assays:
Format in all cases: cell-based
[1] = system: human hepatoma cell HepG2; assay: In vitro human hepatoma cell HepG2 inhibitory activity (MTT); conditions: HepG2, 48 h
From the text: (§1) According to the progress in the studies on anticancer drugs using IMPDH as a target, the present invention measured inhibitory activities of the compounds of present invention against human hepatoma cell HepG2 and human lung adenocarcinoma cell A549, respectively, the measured results are shown in Table 5:
In Vitro Human Hepatoma Cell HepG2 Inhibitory Activity Measurement
Collect well growing tumor cells, prepare 6×10^4/ml cell suspension in RPMI-1640 or DMEM culture medium containing 10% FBS, seed in 96-well plates, 100 μl suspension each well, incubate at 37° C. under 5% CO2 atmosphere for 24 h, add the test solution (final concentration of drug: 0.625, 1.25, 2.5, 5.0, 10 μg/ml), for each concentration set three parallel holes, set positive control (cisplatin 10, 1, 0.1 μg/ml) and a blank control simultaneously. After culture for 48 h discard the supernatants, add into each well 10 μl MTT solution (5 mg/ml, prepared with RPMI-1640 medium), continue culturing for 4 It, add into each hole 100 μl acidified isopropanol cell lysate, culture overnight, measure absorbance (A) values with Bio-Tek MQX200 type microplate reader with the detection wavelength at 540 nm, and reference wavelength 450 nm. Calculate the inhibition rate as follows: inhibition rate=(Ablank−Asample)/Ablank control×100%. Use Graphpad Prism 5 statistical software to calculate IC50.

[2] = system: human lung adenocarcinoma cell A549; assay: In vitro human lung adenocarcinoma cell A549 inhibitory activity (MTT); conditions: A549, 48 h
From the text: as §1
In Vitro Human Lung Adenocarcinoma Cell A549 Inhibitory Activity Measurement
Cell lines: human lung adenocarcinoma cell A549. Collect well growing tumor cells, prepare cell suspension with Ham's F12 culture solution containing 10% fetal calf serum medium, seed the suspension in 96-well plates, each well 100 μl suspension at 5000 cells/well, incubate at 37° C., under 5% CO2 atmosphere, 24 h later, add 2×drug solution […], each concentration in three parallel holes, set the blank control simultaneously. After culture for 48 h, add 20 μl (5 mg/ml) MTT to each well, culture 4 h, discard the supernatants. Measure absorbance (A) values using Bio-Rad 680 microplate reader at a detection wavelength of 570 nm, the survival rate (%) is calculated as follows: AsampleAblank control×100%. Use statistical software Graphpad Prism5 to calculate IC50. After primary screening of all samples, adjust the concentration gradient of the samples with IC50<100 μg/ml to do additional screenings, which are carried out with two parallel determinations.

[3] = system: Coxsackie virus type B6 (COX-B6); assay: Anti-Coxsackie virus type B6 (COX-B6) activity, CPE in Vero cells; conditions: Reed-Muench
Procedure: (§2) With Vero (African green monkey kidney) cells as viral hosts, inhibitory effects of the compounds of present invention on the grades of pathological lesions by coxsackievirus B3 (COX-B3), B6 (COX-B6) viruses in Vero cells were determined. The measured results of viral inhibitory activity of the compounds are shown in Table 3 and Table 4; wherein RBV is the control drug ribavirin. The inhibitory activities of the measured compounds against coxsackievirus B3, B6 were stronger than the control.
(§3) Screening of Anti-B3, B6 Type Coxsackie Viruses (COX-B3, COX-B6) Activity of the Samples
(§4) Prepare stock solutions of COX-B3 (or COX-B6) virus strains as well as tested compounds in DMSO before use. Before tests, dilute the stock solution with culture solution into a certain concentration and then dilute 3 times to make a total of eight dilutions. Use ribavirin (RBV) as positive control. Test procedures are as follows: seed Vero cells into 96-well culture plates, infect with 10^−5 Coxsackie virus of B3 (or B6) type, 24 hours later; adsorb subsequently for 2 hours, then discard the virus solution, add in the sample compounds and the positive control according to the abovementioned dilutions, set cell control wells and virus control wells simultaneously. When the cytopathic effect (CPE) of cells in the virus control wells reach 4+, observe CPE of the cells in each group. Use Reed-Muench method to calculate 50% inhibitory concentration (IC50) of the sample compounds against coxsackie virus B3 (or B6) type.

[4] = system: Coxsackie virus type B3 (COX-B3); assay: Anti-Coxsackie virus type B3 (COX-B3) activity, CPE in Vero cells; conditions: Reed-Muench
Procedure: as §2, §3, §4

SMILES | IC50 [4] [µg/mL] | also measured
N.N.[Cl][Pt][Cl] [Cisplatin, reference compound] | – | HepG2 IC50 [1]: 104.1 µg/mL; A549 IC50 [2]: 263.4 µg/mL
COc1cc(/N=C/c2cccs2)ccc1-c1cnco1 [Compound 9, N-(thien-2-ylmethylene)-3-methoxy-4-(oxazol-5-yl) aniline] | 12.8 (≈ 45.1 µM) | IC50 [3]: 12.8 µg/mL (≈ 45.1 µM)
COc1ccc2[nH]cc(CNc3ccc(-c4cnco4)c(OC)c3)c2c1 [Compound 52, N-(5-methoxy-1H-indol-3-ylmethyl)-3-methoxy-4-(oxazol-5-yl) aniline] | 3.25 (≈ 9.3 µM) | IC50 [3]: > 2.47 µg/mL
COc1cc(NCc2cccnc2Cl)ccc1-c1cnco1 [Compound 59, N-(2-chloropyridin-3-ylmethyl)-3-methoxy-4-(oxazol-5-yl) aniline] | 1.9 (≈ 6.02 µM) | IC50 [3]: 1.05 µg/mL (≈ 3.33 µM)
COc1ccc(CNc2ccc(-c3cnco3)c(OC)c2)cn1 [Compound 60, N-(6-methoxy-pyridin-3-ylmethyl)-3-methoxy-4-(oxazol-5-yl) aniline] | 0.57 (≈ 1.83 µM) | IC50 [3]: 3.15 µg/mL (≈ 10.1 µM)
COc1cc(/N=C/c2ccc(F)cc2)ccc1-c1cnco1 [Compound 64, N-(4-Fluorophenylmethylidene)-3-methoxy-4-(oxazol-5-yl)-aniline] | 4.28 (≈ 14.4 µM) | IC50 [3]: 17.2 µg/mL (≈ 58.2 µM)
COc1cc(NN=C(C#N)C#N)ccc1-c1cnco1 [Compound 66] | 1.43 (≈ 5.35 µM) | IC50 [3]: 4.28 µg/mL (≈ 16 µM)
COc1cc(NS(C)(=O)=O)ccc1-c1cnco1 [Compound 68] | 1.53 (≈ 5.7 µM) | IC50 [3]: 7.41 µg/mL (≈ 27.6 µM)
COc1cc(NC/C=C(/C)CCC=C(C)C)ccc1-c1cnco1 [Compound 71, N-(3,7-dimethyl-octa-2,6-dienyl)-3-methoxy-4-(oxazol-5-yl) aniline] | 1.25 (≈ 3.83 µM) | IC50 [3]: > 0.82 µg/mL
COc1cc(N(CCc2cc3ccccc3s2)C(=O)C(C)Br)ccc1-c1cnco1 (centres unmarked) [Compound 80, N-(2-benzothien-2-yl-ethyl)-N-(3-methoxy-4-oxazol-5-yl)-2-bromopropionamide] | 0.24 (≈ 0.494 µM) | –
COc1cc(NCCc2nnc3ccccc3c2Cl)ccc1-c1cnco1 [Compound 81, N-[2-(4-chlorocinnolin-3-yl)-ethyl]-3-methoxy-4-(oxazol-5-yl) aniline] | 0.29 (≈ 0.761 µM) | –
COc1cc(NCCc2cc3cc(Cl)ccc3s2)ccc1-c1cnco1 [Compound 82, N-[2-(5-chlorobenzathien-2-yl)-ethyl]-3-methoxy-4-(oxazol-5-yl) aniline] | 0.33 (≈ 0.857 µM) | –
COc1cc(NCC2=C(Cl)c3cc(Cl)ccc3SC2)ccc1-c1cnco1 [Compound 83, N-(4,6-dichloro-2H-sulfurbenzopyran-3-ylmethyl)-3-methoxy-4-(oxazol-5-yl) aniline] | 0.42 (≈ 1 µM) | –
COc1cc(CN(Cc2cc3cc(C)ccc3s2)S(C)(=O)=O)ccc1-c1cnco1 [Compound 84, N-(3-methoxy-4-oxazol-5-yl-benzyl)-N-(5-methyl-benzothien-2-ylmethyl)-methylsulfonamide] | 0.34 (≈ 0.768 µM) | –
COc1cc(CNCc2csc3ccccc23)ccc1-c1cnco1 [Compound 85, N-(benzothien-3-ylmethyl)-3-methoxy-4-(oxazol-5-yl) benzylamine] | 0.44 (≈ 1.26 µM) | –
COc1cc(CNCc2ccc3c(cnn3C)c2)ccc1-c1cnco1 [Compound 86, N-(1-methyl-1H-indazole-5-methyl)-3-methoxy-4-(oxazol-5-yl) benzylamine] | 0.34 (≈ 0.976 µM) | –
COc1cc(CN(C)Cc2csc3ccc(Cl)cc23)ccc1-c1cnco1 [Compound 87, N-methyl-N-(5-chlorobenzothien-3-ylmethyl)-3-methoxy-4-(oxazol-5-yl) benzylamine] | 0.35 (≈ 0.877 µM) | –
COc1cc(NCc2ccc3c(c2)Sc2ccccc2N3C)ccc1-c1cnco1 [Compound 88, N-(10-methyl-10H-phenothiazin-3-ylmethyl)-3-methoxy-4-oxazol-5-yl aniline] | 0.36 (≈ 0.866 µM) | –
Cc1ccc(CNCc2ccc(-c3cnco3)c(Cl)c2)s1 [Compound 89, N-(5-methylthien-2-ylmethyl)-3-chloride-4-oxazol-5-yl benzylamine] | 0.26 (≈ 0.815 µM) | –

SMILES | IC50 [4] [µg/mL] | also measured
Clc1cc(NCc2cccc3c2sc2ccccc23)ccc1-c1cnco1 [Compound 90, N-dibenzothien-4-ylmethyl-3-chloro-4-oxazol-5-yl aniline] | 0.26 (≈ 0.665 µM) | –
Clc1cc(CNCc2cccc3nsnc23)ccc1-c1cnco1 [Compound 91, N-(benzo[1,2,5]-thiadiazol-4-ylmethyl)-3-chloro-4-oxazol-5-yl benzylamine] | 0.28 (≈ 0.785 µM) | –
COc1cc(NCC2=COc3ccc(O)cc3C2)ccc1-c1cnco1 [Compound 92, 3-(3-methoxy-4-oxazol-5-ylanilino) methyl-4-H-benzopyran-6-ol] | 0.63 (≈ 1.8 µM) | –
COc1cc(CNCc2ccc(Br)o2)ccc1-c1cnco1 [Compound 93, N-(5-bromofuran-2-ylmethyl)-3-methoxy-4-(oxazol-5-yl) benzylamine] | 0.88 (≈ 2.42 µM) | –
COc1cc(NCc2c3ccccc3nc3ccc(C)cc23)ccc1-c1cnco1 [Compound 94, N-(2-methylacridine-9-methyl)-3-methoxy-4-(oxazol-5-yl) aniline] | 0.68 (≈ 1.72 µM) | –
COc1cc(NCc2c3ccccc3cc3ccccc23)ccc1-c1cnco1 [Compound 95, N-(anthracen-9-ylmethyl) 3-methoxy-4-(oxazol-5-yl) aniline] | 0.55 (≈ 1.45 µM) | –
COc1cc(NCc2ccc(CO)o2)ccc1-c1cnco1 [Compound 96] | 1.43 (≈ 4.76 µM) | –
CCc1sc(CNc2ccc(-c3cnco3)c(OC)c2)cc1Br [Compound 97, N-(4-bromo-5-ethylthien-2-ylmethyl) 3-methoxy-4-(oxazol-5-yl) aniline] | 0.23 (≈ 0.585 µM) | –
COc1cc(NS(=O)(=O)c2cccs2)ccc1-c1cnco1 [Compound 98, N-(thien-2-ylsulfonyl)-3-methoxy-4-oxazole-5-yl aniline] | 0.88 (≈ 2.62 µM) | –
COc1cc(NS(=O)(=O)c2cc([N+](=O)[O-])c(Cl)s2)ccc1-c1cnco1 [Compound 99, N-(5-chloro-4-nitro-thien-2-ylsulfonyl)-3-methoxy-4-oxazole-5-yl aniline] | 0.78 (≈ 1.88 µM) | –
COc1cc(NCc2ccc3c(c2)CCO3)ccc1-c1cnco1 [Compound 100, N-(2,3-dihydobenzofuro-5-ylmethyl)-3-methoxy-4-(oxazol-5-yl) aniline] | 0.46 (≈ 1.43 µM) | –
COc1cc(NCc2ccc(C(C)=O)s2)ccc1-c1cnco1 [Compound 101, N-(5-acetylthien-2-ylmethyl)-3-methoxy-4-oxazole-5-yl aniline] | 0.48 (≈ 1.46 µM) | –
COc1cc(NCc2ccc(SC)s2)ccc1-c1cnco1 [Compound 102, N-(5-methylthiothien-2-ylmethyl)-3-methoxy-4-(oxazol-5-yl) aniline] | 0.35 (≈ 1.05 µM) | –
COc1cc(NCc2ccc(N3CCC(O)CC3)s2)ccc1-c1cnco1 [Compound 103] | 0.4 (≈ 1.04 µM) | –
COc1cc(NCc2ccc(-c3ccc(C(F)(F)F)cc3Cl)o2)ccc1-c1cnco1 [Compound 104, N-[5-(2-chloro-4-trifluoromethylphenyl)furan-2-ylmethyl]-3-methoxy-4-oxazol-5-yl aniline] | 0.45 (≈ 1 µM) | –
COc1cc(NC/C=C/c2ccoc2)ccc1-c1cnco1 [Compound 105, N-(furan-3-ylpropen-1-yl)-3-methoxy-4-oxazol-5-yl aniline] | 1.23 (≈ 4.15 µM) | –
COc1cc(NCc2ccc3sccc3c2)ccc1-c1cnco1 [Compound 106, N-(benzothien-5-ylmethyl)-3-methoxy-4-oxazol-5-yl aniline] | 0.44 (≈ 1.31 µM) | –
NC(=O)c1ncn([C@@H]2O[C@H](CO)[C@@H](O)[C@H]2O)n1 [RBV, ribavirin, reference compound] | 222 (≈ 910 µM) | IC50 [3]: 222 µg/mL (≈ 910 µM)
